In ChEMBL document CHEMBL5236651, “Synthesis and antibacterial activity of novel 2‑fluoro ketolide antibiotics with 11,12‑quinoylalkyl side chains” (2023):
Values after ≈ are worked out from the molar mass of the structure shown.

Tests used:
Type in all cases: functional
Enterococcus faecalis [1] = test: Antibacterial activity against vancomycin-sensitive Enterococcus faecalis 16-6 assessed as inhibition of bacterial growth by CLSI based micro broth double dilution method
Enterococcus faecalis [2] = test: Antibacterial activity against vancomycin-resistant Enterococcus faecalis ATCC 51299 assessed as inhibition of bacterial growth by CLSI based micro broth double dilution method
Streptococcus pyogenes [3] = test: Antibacterial activity against erythromycin-sensitive Streptococcus pyogenes ATCC 19615 assessed as inhibition of bacterial growth by CLSI based micro broth double dilution method
Staphylococcus aureus [4] = test: Antibacterial activity against methicillin-sensitive Staphylococcus aureus 16-1 assessed as inhibition of bacterial growth by CLSI based micro broth double dilution method
Pseudomonas aeruginosa [5] = test: Antibacterial activity against Pseudomonas aeruginosa PAO1 assessed as inhibition of bacterial growth by CLSI based micro broth double dilution method
Klebsiella pneumoniae [6] = test: Antibacterial activity against ESBL negative Klebsiella pneumoniae 7 assessed as inhibition of bacterial growth by CLSI based micro broth double dilution method
Klebsiella pneumoniae [7] = test: Antibacterial activity against ESBL negative Klebsiella pneumoniae 16-2 assessed as inhibition of bacterial growth by CLSI based micro broth double dilution method
Staphylococcus aureus [8] = test: Antibacterial activity against methicillin-sensitive Staphylococcus aureus 15 assessed as inhibition of bacterial growth by CLSI based micro broth double dilution method
Streptococcus pneumoniae [9] = test: Antibacterial activity against erythromycin-sensitive Streptococcus pneumoniae ATCC 49619 assessed as inhibition of bacterial growth by CLSI based micro broth double dilution method
[10] = tested on: Staphylococcus epidermidis; test: Antibacterial activity against methicillin-sensitive Staphylococcus epidermidis 16-4 assessed as inhibition of bacterial growth by CLSI based micro broth double dilution method
Streptococcus pneumoniae [11] = test: Antibacterial activity against erythromycin-resistant Streptococcus pneumoniae 12-3 assessed as inhibition of bacterial growth by CLSI based micro broth double dilution method
Enterococcus faecalis [12] = test: Antibacterial activity against vancomycin-sensitive Enterococcus faecalis […] assessed as inhibition of bacterial growth by CLSI based micro broth double dilution method
Staphylococcus aureus [13] = test: Antibacterial activity against methicillin-sensitive Staphylococcus aureus ATCC 29213 assessed as inhibition of bacterial growth by CLSI based micro broth double dilution method
Enterococcus faecalis [14] = test: Antibacterial activity against vancomycin-resistant Enterococcus faecalis ATCC 51575 assessed as inhibition of bacterial growth by CLSI based micro broth double dilution method
Escherichia coli [15] = test: Antibacterial activity against ESBL-negative Escherichia coli ATCC 25922 assessed as inhibition of bacterial growth by CLSI based micro broth double dilution method
Streptococcus pyogenes [16] = test: Antibacterial activity against erythromycin-resistant Streptococcus pyogenes 12-1 assessed as inhibition of bacterial growth by CLSI based micro broth double dilution method
Escherichia coli [17] = test: Antibacterial activity against ESBL-positive Escherichia coli ATCC 35218 assessed as inhibition of bacterial growth by CLSI based micro broth double dilution method
Klebsiella pneumoniae [18] = test: Antibacterial activity against ESBL positive Klebsiella pneumoniae ATCC 700603 assessed as inhibition of bacterial growth by CLSI based micro broth double dilution method
Pseudomonas aeruginosa [19] = test: Antibacterial activity against Pseudomonas aeruginosa 16-11 assessed as inhibition of bacterial growth by CLSI based micro broth double dilution method
Pseudomonas aeruginosa [20] = test: Antibacterial activity against Pseudomonas aeruginosa ATCC 27853 assessed as inhibition of bacterial growth by CLSI based micro broth double dilution method
Escherichia coli [21] = test: Antibacterial activity against Escherichia coli 16-7 assessed as inhibition of bacterial growth by CLSI based micro broth double dilution method
[22] = tested on: Staphylococcus epidermidis; test: Antibacterial activity against methicillin-sensitive Staphylococcus epidermidis ATCC 12228 assessed as inhibition of bacterial growth by CLSI based micro broth double dilution method

| Structure (SMILES) | MIC (Enterococcus faecalis [1]) [µg/mL] | MIC (Enterococcus faecalis [2]) [µg/mL] | MIC (Streptococcus pyogenes [3]) [µg/mL] | MIC (Staphylococcus aureus [4]) [µg/mL] | MIC (Pseudomonas aeruginosa [5]) [µg/mL] | MIC (Klebsiella pneumoniae [6]) [µg/mL] | MIC (Klebsiella pneumoniae [7]) [µg/mL] | MIC (Staphylococcus aureus [8]) [µg/mL] | MIC (Streptococcus pneumoniae [9]) [µg/mL] | MIC [10] [µg/mL] | MIC (Streptococcus pneumoniae [11]) [µg/mL] | MIC (Enterococcus faecalis [12]) [µg/mL] | MIC (Staphylococcus aureus [13]) [µg/mL] | MIC (Enterococcus faecalis [14]) [µg/mL] | MIC (Escherichia coli [15]) [µg/mL] | MIC (Streptococcus pyogenes [16]) [µg/mL] | MIC (Escherichia coli [17]) [µg/mL] | MIC (Klebsiella pneumoniae [18]) [µg/mL] | MIC (Pseudomonas aeruginosa [19]) [µg/mL] | MIC (Pseudomonas aeruginosa [20]) [µg/mL] | other results |
| --- | --- | --- | --- | --- | --- | --- | --- | --- | --- | --- | --- | --- | --- | --- | --- | --- | --- | --- | --- | --- | --- |
| CC[C@H]1OC(=O)[C@@](C)(F)C(=O)[C@H](C)[C@@H](O[C@@H]2O[C@H](C)C[C@H](N(C)C)[C@H]2O)[C@@](C)(OC)C[C@@H](C)C(=O)[C@H](C)[C@H]2N(CCCN(C)c3ccnc4ccccc34)C(=O)O[C@]12C | > 32 | > 32 | 0.03 (≈ 0.0362 µM) | 0.5 (≈ 0.603 µM) | > 32 | > 32 | > 32 | 0.5 (≈ 0.603 µM) | 0.03 (≈ 0.0362 µM) | 2 (≈ 2.41 µM) | 0.12 (≈ 0.145 µM) | 0.25 (≈ 0.302 µM) | 0.5 (≈ 0.603 µM) | > 32 | > 32 | > 32 | > 32 | > 32 | > 32 | > 32 | MIC (Escherichia coli [21]): > 32 µg/mL; MIC [22]: 0.25 µg/mL (≈ 0.302 µM) |
| CC[C@H]1OC(=O)[C@@](C)(F)C(=O)[C@H](C)[C@@H](O[C@@H]2O[C@H](C)C[C@H](N(C)C)[C@H]2O)[C@@](C)(OC)C[C@@H](C)C(=O)[C@H](C)[C@H]2N(CCCOc3ccnc4ccccc34)C(=O)O[C@]12C | > 32 | > 32 | 0.25 (≈ 0.306 µM) | 0.5 (≈ 0.613 µM) | > 32 | > 32 | > 32 | 1 (≈ 1.23 µM) | 0.25 (≈ 0.306 µM) | 1 (≈ 1.23 µM) | 32 (≈ 39.2 µM) | 0.5 (≈ 0.613 µM) | 1 (≈ 1.23 µM) | > 32 | > 32 | 16 (≈ 19.6 µM) | > 32 | > 32 | > 32 | > 32 | MIC (Escherichia coli [21]): > 32 µg/mL; MIC [22]: 0.5 µg/mL (≈ 0.613 µM) |
| CC[C@H]1OC(=O)[C@@](C)(F)C(=O)[C@H](C)[C@@H](O[C@@H]2O[C@H](C)C[C@H](N(C)C)[C@H]2O)[C@@](C)(OC)C[C@@H](C)C(=O)[C@H](C)[C@H]2N(CCCNc3ccnc4ccccc34)C(=O)O[C@]12C | > 32 | > 32 | 0.06 (≈ 0.0736 µM) | 0.12 (≈ 0.147 µM) | > 32 | 8 (≈ 9.82 µM) | 16 (≈ 19.6 µM) | 0.12 (≈ 0.147 µM) | ≤ 0.016 | 0.25 (≈ 0.307 µM) | 0.06 (≈ 0.0736 µM) | 0.12 (≈ 0.147 µM) | 0.12 (≈ 0.147 µM) | > 32 | 4 (≈ 4.91 µM) | > 32 | 8 (≈ 9.82 µM) | 32 (≈ 39.3 µM) | > 32 | > 32 | MIC (Escherichia coli [21]): 8 µg/mL (≈ 9.82 µM); MIC [22]: 0.06 µg/mL (≈ 0.0736 µM) |
| CC[C@H]1OC(=O)[C@@](C)(F)C(=O)[C@H](C)[C@@H](O[C@@H]2O[C@H](C)C[C@H](N(C)C)[C@H]2O)[C@@](C)(OC)C[C@@H](C)C(=O)[C@H](C)[C@H]2N(CCCN(C(=O)c3ccccc3)c3ccnc4ccccc34)C(=O)O[C@]12C | > 32 | > 32 | 0.12 (≈ 0.131 µM) | 0.5 (≈ 0.544 µM) | > 32 | > 32 | > 32 | 1 (≈ 1.09 µM) | ≤ 0.016 | 1 (≈ 1.09 µM) | 0.06 (≈ 0.0653 µM) | 0.25 (≈ 0.272 µM) | 1 (≈ 1.09 µM) | > 32 | > 32 | > 32 | > 32 | > 32 | > 32 | > 32 | MIC (Escherichia coli [21]): > 32 µg/mL; MIC [22]: 1 µg/mL (≈ 1.09 µM) |
| CC[C@H]1OC(=O)[C@@](C)(F)C(=O)[C@H](C)[C@@H](O[C@@H]2O[C@H](C)C[C@H](N(C)C)[C@H]2O)[C@@](C)(OC)C[C@@H](C)C(=O)[C@H](C)[C@H]2N(CCCN(C(C)=O)c3ccnc4ccccc34)C(=O)O[C@]12C | 4 (≈ 4.67 µM) | 4 (≈ 4.67 µM) | 0.03 (≈ 0.035 µM) | 0.06 (≈ 0.07 µM) | > 32 | > 32 | > 32 | 0.06 (≈ 0.07 µM) | ≤ 0.016 | 0.25 (≈ 0.292 µM) | 0.03 (≈ 0.035 µM) | 0.06 (≈ 0.07 µM) | 0.12 (≈ 0.14 µM) | 4 (≈ 4.67 µM) | 32 (≈ 37.3 µM) | 2 (≈ 2.33 µM) | 32 (≈ 37.3 µM) | 32 (≈ 37.3 µM) | > 32 | > 32 | MIC (Escherichia coli [21]): 32 µg/mL (≈ 37.3 µM); MIC [22]: 0.06 µg/mL (≈ 0.07 µM) |
| CC[C@H]1OC(=O)[C@@](C)(F)C(=O)[C@H](C)[C@@H](O[C@@H]2O[C@H](C)C[C@H](N(C)C)[C@H]2O)[C@@](C)(OC)C[C@@H](C)C(=O)[C@H](C)[C@H]2N(CCCN(C(=O)/C=C/c3ccccc3)c3ccnc4ccccc34)C(=O)O[C@]12C | > 32 | > 32 | 0.5 (≈ 0.529 µM) | 0.5 (≈ 0.529 µM) | > 32 | > 32 | > 32 | 1 (≈ 1.06 µM) | ≤ 0.016 | 1 (≈ 1.06 µM) | 0.5 (≈ 0.529 µM) | 0.5 (≈ 0.529 µM) | 1 (≈ 1.06 µM) | > 32 | > 32 | 8 (≈ 8.46 µM) | > 32 | 32 (≈ 33.9 µM) | > 32 | > 32 | MIC (Escherichia coli [21]): > 32 µg/mL; MIC [22]: 1 µg/mL (≈ 1.06 µM) |
| CC[C@H]1OC(=O)[C@@](C)(F)C(=O)[C@H](C)[C@@H](O[C@@H]2O[C@H](C)C[C@H](N(C)C)[C@H]2O)[C@@](C)(OC)C[C@@H](C)C(=O)[C@H](C)[C@H]2N(CCCN(Cc3ccccc3)c3ccnc4ccccc34)C(=O)O[C@]12C | > 32 | > 32 | 0.25 (≈ 0.276 µM) | 1 (≈ 1.1 µM) | > 32 | > 32 | > 32 | 1 (≈ 1.1 µM) | ≤ 0.016 | 2 (≈ 2.21 µM) | 0.12 (≈ 0.133 µM) | 2 (≈ 2.21 µM) | 1 (≈ 1.1 µM) | > 32 | > 32 | 16 (≈ 17.7 µM) | > 32 | > 32 | > 32 | > 32 | MIC (Escherichia coli [21]): > 32 µg/mL; MIC [22]: 0.25 µg/mL (≈ 0.276 µM) |
